# Measured values reported in publication PMC1079853, “Alkane-induced expression, substrate binding profile, and immunolocalization of a cytochrome P450 encoded on the nifD excision element of Anabaena 7120” (BMC Microbiology, 2005).
# Target: T1, CYP110 (Nostoc sp. PCC 7120 = FACHB-418, UniProt P29980)
# T1 construct: recombinant, expressed in E. coli from pUC8 vector, purified soluble fraction; about 50 kDa; U38537 is the complete nifD element carrying cyp110
# T1 sequence (P29980 1-459): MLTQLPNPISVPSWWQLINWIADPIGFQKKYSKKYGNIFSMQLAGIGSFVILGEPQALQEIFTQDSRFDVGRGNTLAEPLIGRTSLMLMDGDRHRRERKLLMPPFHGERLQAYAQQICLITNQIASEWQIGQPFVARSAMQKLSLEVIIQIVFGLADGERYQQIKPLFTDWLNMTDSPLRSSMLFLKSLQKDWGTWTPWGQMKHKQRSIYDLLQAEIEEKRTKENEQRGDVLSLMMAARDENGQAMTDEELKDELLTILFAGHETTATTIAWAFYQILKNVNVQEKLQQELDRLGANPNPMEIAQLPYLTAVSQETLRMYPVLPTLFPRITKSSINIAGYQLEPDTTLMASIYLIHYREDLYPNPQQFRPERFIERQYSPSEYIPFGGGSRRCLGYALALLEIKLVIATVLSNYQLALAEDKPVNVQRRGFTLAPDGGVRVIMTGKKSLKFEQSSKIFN
# Assay: UV-visible spectral shift titration
# Type: binding
# Settings: read-out: Ks
# Text: UV-visible spectral shift titration on CYP110
row,Structure (SMILES),Kd
1,"CC/C=C\C/C=C\C/C=C\CCCCCCCC(=O)O [9,12,15-Octadecatrienoic Acid]",62 µM
2,"CCCCCC=CCC=CCCCCCCCC(=O)O [9,12-Octadecadienoic Acid]",720 µM
3,NCCCCCCCCCCCC(=O)O [12-Aminododecanoic Acid],416 µM
4,CCCCC/C=C\C/C=C\C/C=C\C/C=C\CCCC(=O)O [Arachidonic Acid],51 µM
5,CCCCCCCCCCCC(=O)O [Dodecanoic Acid],1900 µM
6,CCCCCCCCCCCCCCCCC(=O)O [Heptadecanoic Acid],1100 µM
7,CCCCCCCCCCCCCCCC(=O)O [Hexadecanoic Acid],500 µM
8,CCCCCCCCCCCC(N)=O [Lauryl Amide],2210 µM
9,CCCCCCCCCCCC(=O)NC [N-methyl Lauryl Amide],2560 µM
10,CCCCCCCCCCCCCCCCCC(=O)O [Octadecanoic Acid],3100 µM
11,CCCCCCCCCCCCCCC(=O)O [Pentadecanoic Acid],210 µM
12,CCCCCCCCCCCCCC(=O)O [Tetradecanoic Acid],91 µM
13,CCCCCCCCCCCCC(=O)O [Tridecanoic Acid],850 µM

# The next lines start with the values.
row,Kd,Structure (SMILES)
1,41 µM,CCCCCCCCCCN [Decyl Amine]
2,12 µM,CCCCCCCCCCCCN [Dodecyl Amine]
3,102 µM,CCCCCCCN [Heptyl Amine]
4,320 µM,CCCCCCN [Hexyl Amine]
5,62 µM,CCCCCCCCCN [Nonyl Amine]
6,81 µM,CCCCCCCCN [Ocytl Amine]
7,540 µM,CCCCCN [Pentyl Amine]
